What was measured:
[1] = test system: HT-1080 fibrosarcoma cells; test: HT-1080 viability dose response in presence or absence of ferrostatin-1 or liproxstatin-1; assay type: cell-based; details: HT-1080 cells, 100 μM to 100 nM, 48 hours, with/without 1.5 μM ferrostatin-1
Method: To determine whether the reduction in cell viability by the compounds identified in FIG. 1 is driven by induction of ferroptosis, we performed dose response curves for each compound in the presence or absence of ferrostatin-1 or liproxstatin-1, which prevent ferroptosis by functioning as radical trapping antioxidants at cellular membranes. Briefly, HT-1080 fibrosarcoma cells were plated 24 hours prior to treatment with a range of concentrations of each inhibitor compound ranging from 100 μM to 100 nM in the presence or absence of 1 μM liproxstatin-1 or 1.5 µM ferrostatin-1. Cell Titer Glo® was used to read out cell viability after 48 hours compound exposure. Data was collected in triplicate.
Compounds from the Enamine covalent inhibitor library with similar structures to compounds 8216, 6666 or 1816 were further screened for inducing cell death via ferroptosis. Briefly, HT-1080 fibrosarcoma cells were plated on black-sided clear bottom plates 24 hours prior to treatment, with or without the addition of 2× ferrostatin-1, which inhibits the process of ferroptosis and rescues cells from undergoing this form of cell death. Compounds were diluted in DMSO and media then added to the cells for a total of 24 hours at which point cell viability was read out via Cell Titer Glo. Compounds were tested at […] ranging from 50 μM to 5 nM at half log dilutions.
FIG. 14 is a panel of plots 1400 showing relative viability of HT-1080 fibrosarcoma cells exposed to 15 inhibitor compounds with similar structures to 8216, 6666, or 1816 tested over a range of concentrations from 50 μM to 5 nM at half log dilutions in the presence of (red line) and absence of (black line) 1.5 μM ferrostatin-1. Ferrostatin-1 is a lipophilic antioxidant which inhibits the process of ferroptosis and rescues cells from undergoing this form of cell death. The black line is the relative HT-1080 fibrosarcoma cell viability in the absence of ferrostatin-1 and the red line is the relative HT-1080 fibrosarcoma cell viability in the presence of 1.5 μM ferrostatin-1. HT-1080 fibrosarcoma cells were plated on side-blackened, clear bottom plates 24 hours prior to treatment, with or without the addition of 2× ferrostatin-1. Each compound was diluted in DMSO and media and then added to the cells for a total of 24 hours, at which point cell viability was read out via Cell Titer Glo.

[2] = test system: 786-O Renal Clear Cell Carcinoma cells; test: Bodipy-C11 lipid peroxidation staining in 786-O cells; assay type: cell-based; details: for lipid peroxidation (Bodipy-C11 staining): 8216 6.25 μM 2 h, 1816 25 μM 1 h, 3362 12.5 μM 2 h, 0973 50 μM 2 h, 1962 50 μM 2 h
Method: To validate that the five ferroptosis-inducing compounds identified in FIG. 3 do cause lipid peroxidation, we used Bodipy-C11 staining in 786-O Renal Clear Cell Carcinoma cells to visualize using microscopy the presence (or absence) of oxidized lipids. Biodipy-C11 is a dye that traffics to lipid membranes and harbors a fluorophore that emits at different wavelengths depending on its oxidation status. Briefly, 786-O Renal Clear Cell Carcinoma cells were plated 24 hours prior to treatment with each of the five ferroptosis-inducing compounds (8216, 1816, 3362, 1962, and 0973) for one or two hours. DMSO was used as a control treatment. Following the treatment period, Hoechst stain (10 μM; a nuclear counterstain) and Bodipy-C11 (200 μM) were added to the cells for 30 minutes and then the cells were imaged using the Opera Phenix high content screening microscope.
FIG. 4B is a panel of plots 410 showing fluorescence images of Biodipy-C11 staining of cells treated with compound 8216 and the controls RSL3 and sodium arsenite. Briefly, 786-O Renal Clear Cell Carcinoma cells were plated 24 hours prior to treatment with compound 8216 and the controls RSL3 and sodium arsenite for 1 hour with and without 1.5 μM of ferrostatin-1. Bodipy C-11 undergoes a shift in emission when lipids become oxidized, non-oxidized lipids are represented in orange and oxidized lipids are green; Hoescht was included as nuclear stain to represent cell bodies.

recombinant GPX4 protein = target: T1, recombinant GPX4 protein (Homo sapiens, UniProt P36969); test: GPX4 inhibitor screening assay (Cayman Chemical cat #701880); assay type: biochemical; details: for GPX4 inhibitory capacity in vitro: 25 μM, one hour incubation with recombinant GPX4; for EC50: stated with the FIG. 6/FIG. 7 binding and GPX4 enzymatic results, assay behind the EC50 not named, read-out: EC50 (half maximal effective concentration)
T1 construct: purchased Cayman Chemical SO960203
T1 sequence (P36969 1-197): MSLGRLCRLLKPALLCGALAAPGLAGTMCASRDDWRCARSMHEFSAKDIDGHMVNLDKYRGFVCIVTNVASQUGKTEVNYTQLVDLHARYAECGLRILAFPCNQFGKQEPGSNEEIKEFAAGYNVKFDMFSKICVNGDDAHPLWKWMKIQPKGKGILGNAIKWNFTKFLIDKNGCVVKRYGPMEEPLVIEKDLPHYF
Method: To determine whether the five ferroptosis-inducing compounds (1816, 8216, 3362, 1962, and 0973) inhibit GPX4 enzymatic activity in vitro, we used a commercially available GPX4 inhibitor screening kit (Cayman Chemical cat #701880). This assay measures a compound's ability to prevent cumene hydroperoxide reduction by recombinant GPX4 protein. Briefly, the five ferroptosis-inducing compounds (25 μM) were incubated with recombinant GPX4 protein for one hour before being run in the Cayman Chemicals GPX4 inhibitor screening assay according to manufacturer's recommendations. The assay read out is a change in absorbance between NADPH and NADP. ML162 (25 μM) and RSL3 (25 μM) were used as positive control compounds.
An enzymatic assay that measures the reduction of […] by GPX4 was used to test the ability of compounds 8216, 6666, 8147, and 3793 to inhibit the activity of GPX4. The enzymatic assay was performed using a commercially available kit (Cayman cat #701880). The compounds were tested at 8 concentrations in duplicate with the compound being diluted following manufacturer's instructions. The enzymatic reaction was allowed to continue for 1 hour prior to reading out the kinetic shift in absorbance that occurs as result of GPX4 […].

EC50 (recombinant GPX4 protein) [nM] | SMILES | cell death and rescue by ferrostatin-1 [1] | lipid peroxidation (Bodipy-C11 staining) [2] | GPX4 inhibitory capacity in vitro (recombinant GPX4 protein) | Bodipy C-11 emission shift (lipid oxidation) ([2]; 1 hour, with and without 1.5 μM ferrostatin-1)
– | CCCCCN(C(=O)CCl)c1c(N)n(CCCC)c(=O)[nH]c1=O [Compound 1816] | cell death that was rescued by the addition of the antioxidant ferrostatin-1 | some degree of lipid peroxidation was observed | do not inhibit GPX4 enzymatic activity in vitro | –
~440 | O=C(CCl)N1c2ccccc2OC[C@@H]1c1ccccc1 [Compound 1962] | cell death that was rescued by the addition of the antioxidant ferrostatin-1 | some degree of lipid peroxidation was observed | exhibit potent GPX4 inhibitory capacity | –
– | CCOc1ccc(C[C@@H]2c3cc(OCC)c(OCC)cc3CCN2C(=O)CCl)cc1OCC [Compound 3362] | cell death that was rescued by the addition of the antioxidant ferrostatin-1 | some degree of lipid peroxidation was observed | do not inhibit GPX4 enzymatic activity in vitro | –
~100 | O=C(CCl)N(Cc1ccc(F)cc1)C1CCCCC1 [Compound 8216] | cell death that was rescued by the addition of the antioxidant ferrostatin-1 | some degree of lipid peroxidation was observed | exhibit potent GPX4 inhibitory capacity | shift in emission color from orange to green

From patent US20240315994A1, “SMALL MOLECULE MODULATORS OF FERROPTOSIS” (ARPEGGIO BIOSCIENCES, INC., priority 2021, published 2024)
